{"source": "patent US12459918B2", "about": "“Isoquinolinone derivatives serving as rock protein kinase inhibitors and use thereof” (GUANGZHOU OCUSUN OPHTHALMIC BIOTECHNOLOGY CO., LTD., priority 2019, dated 2025)", "key": {"[1]": {"system": "New Zealand rabbits with normal intraocular pressure", "test": "Repeated eye-drop administration for 14 days, experiment operation 2: Day 1 intraocular pressure", "format": "in vivo", "conditions": "for Mean intraocular pressure of both eyes: saline in left; for Mean intraocular pressure of both eyes / Change of intraocular pressure: Day 1; for Change of intraocular pressure: 4 mg/mL, group minus negative control", "from_the_text": "Experimental example 4. Experiment on reduction of intraocular pressure and ocular toxicity of New Zealand rabbits with normal intraocular pressure by repeated eye-drop administration for 14 days\nThe intraocular pressure reduction action and the potential ocular toxicity of compound 63 were explored by 14 days of repeated eye-drop administration in rabbits with normal intraocular pressure.\nMale New Zealand rabbits, aged 97-127 days, weighted 2.6-3.5 kg, purchased from PizhouDongfang Breeding Co. Ltd.\n42 male New Zealand rabbits were randomly divided into 7 groups, with 6 rabbits per group. Animals were randomly divided according to body weight Animals in 1-7 groups were eye-dropped with normal saline in the left eye and with solvent/control sample/test sample in the right eye respectively by a volume of 50 μL/eye, once per day for 14 consecutive days, and the day of administration was recorded as Day 1. The intraocular pressure of the animals was measured before Day 1 administration and in 1, 2, 4, 6, 8 and 10 hours after Day 1 administration, respectively (Table 8)."}, "[2]": {"test": "Toxicokinetics experiment: active compounds in plasma after 14 days of continuous administration", "format": "in vivo, New Zealand rabbits", "conditions": "for Concentration of active compounds in plasma, Group 1 / Concentration of active compounds in plasma, Group 2: 8.0 mg/mL eye-drop, after 14 days of continuous administration", "procedure": "Experimental Example 5. Toxicokinetics Experiment\nThe production rate of active drug ingredients and the exposure amount of active drug ingredients of the compound in plasma were detected after 14 days of continuous administration.\nMale New Zealand rabbits, aged 3-6 months, weighted 2.0-5.0 kg, purchased from PizhouDongfang Breeding Co. Ltd.\nAfter 14 days of continuous administration, blood samples from the group administrated with compound 63 (8.0 mg/mL) were collected at 0 hour (before administration) and in 0.5, 1, 2, 4, 8, and 24 hours after administration on Days 14-15. About 0.8 mL of whole blood was collected from the auricular artery or the saphenous vein of the hind limb (or other appropriate sites) of toxicokinetics experiment animals, and was placed in labeled collection tubes using ethylenediaminetetraacetic acid dipotassium (K2EDTA) as an anticoagulant. Plasma was obtained by centrifugation for 10 minutes at 3000 rpm and under the condition of 2° C. to 8° C. in 60 minutes after blood collection. All samples were quantitatively detected for the content of the administered compounds in plasma of the experimental animals by liquid chromatography-coupled mass spectrometry (LC-MS) and mass spectrometry (MS) technology."}, "[3]": {"conditions": "4 mg/mL in right eye, 1 hour after administration"}, "[4]": {"conditions": "4 mg/mL in right eye, 2 hours after administration"}, "[5]": {"conditions": "4 mg/mL in right eye, 4 hours after administration"}, "[6]": {"conditions": "4 mg/mL in right eye, 6 hours after administration"}, "[7]": {"conditions": "4 mg/mL in right eye, 8 hours after administration"}, "[8]": {"conditions": "4 mg/mL in right eye, 10 hours after administration"}, "[9]": {"conditions": "4 mg/mL in right eye, before administration"}, "[10]": {"conditions": "Time 0.00 hour (before administration)"}}, "data": [{"smiles": "C[C@H]1CNCCCN1S(=O)(=O)c1cccc2cncc(F)c12", "note": "[Compound K-115, reference compound]", "values": [{"measurement": "Mean intraocular pressure of both eyes", "setting": "[1]; [3]", "result": 5.50, "unit": "mmHg"}, {"measurement": "Mean intraocular pressure of both eyes", "setting": "[1]; [4]", "result": 7.06, "unit": "mmHg"}, {"measurement": "Mean intraocular pressure of both eyes", "setting": "[1]; [5]", "result": 9.00, "unit": "mmHg"}, {"measurement": "Mean intraocular pressure of both eyes", "setting": "[1]; [6]", "result": 9.17, "unit": "mmHg"}, {"measurement": "Mean intraocular pressure of both eyes", "setting": "[1]; [7]", "result": 10.61, "unit": "mmHg"}, {"measurement": "Mean intraocular pressure of both eyes", "setting": "[1]; [8]", "result": 12.33, "unit": "mmHg"}, {"measurement": "Mean intraocular pressure of both eyes", "setting": "[1]; [9]", "result": 10.17, "unit": "mmHg"}, {"measurement": "Change of intraocular pressure", "setting": "[1]; 1 hour after administration", "result": "−3.39", "unit": "mmHg"}, {"measurement": "Change of intraocular pressure", "setting": "[1]; 2 hours after administration", "result": "−2.50", "unit": "mmHg"}, {"measurement": "Change of intraocular pressure", "setting": "[1]; 4 hours after administration", "result": "−0.89", "unit": "mmHg"}, {"measurement": "Change of intraocular pressure", "setting": "[1]; 6 hours after administration", "result": "−1.61", "unit": "mmHg"}, {"measurement": "Change of intraocular pressure", "setting": "[1]; 8 hours after administration", "result": 0.23, "unit": "mmHg"}, {"measurement": "Change of intraocular pressure", "setting": "[1]; 10 hours after administration", "result": 0.17, "unit": "mmHg"}, {"measurement": "Change of intraocular pressure", "setting": "[1]; before administration", "result": 0.83, "unit": "mmHg"}]}, {"smiles": "Cc1ccc(C(=O)OCn2cc(C)c3c(S(=O)(=O)N4CC[C@H](N)C4)cccc3c2=O)c(C)c1", "note": "[Compound 63]", "values": [{"measurement": "Concentration of active compounds in plasma, Group 1", "setting": "[2]; [10]", "result": "BQL"}, {"measurement": "Concentration of active compounds in plasma, Group 2", "setting": "[2]; [10]", "result": "BQL"}, {"measurement": "Concentration of active compounds in plasma, Group 1", "setting": "[2]; Time 8.00 hour", "result": "BQL"}, {"measurement": "Concentration of active compounds in plasma, Group 2", "setting": "[2]; Time 8.00 hour", "result": "BQL"}, {"measurement": "Concentration of active compounds in plasma, Group 1", "setting": "[2]; Time 24.0 hour", "result": "BQL"}, {"measurement": "Concentration of active compounds in plasma, Group 2", "setting": "[2]; Time 24.0 hour", "result": "BQL"}, {"measurement": "Metabolite concentration in plasma", "setting": "[2]; 8 hours after administration, high dose of 8 mg/mL", "result": "below the detection limit"}, {"measurement": "Mean intraocular pressure of both eyes", "setting": "[1]; 0.25 mg/mL in right eye, 1 hour after administration", "result": 6.22, "unit": "mmHg"}, {"measurement": "Mean intraocular pressure of both eyes", "setting": "[1]; 0.25 mg/mL in right eye, 2 hours after administration", "result": 6.17, "unit": "mmHg"}, {"measurement": "Mean intraocular pressure of both eyes", "setting": "[1]; 0.25 mg/mL in right eye, 4 hours after administration", "result": 6.67, "unit": "mmHg"}, {"measurement": "Mean intraocular pressure of both eyes", "setting": "[1]; 0.25 mg/mL in right eye, 6 hours after administration", "result": 8.06, "unit": "mmHg"}, {"measurement": "Mean intraocular pressure of both eyes", "setting": "[1]; 0.25 mg/mL in right eye, 8 hours after administration", "result": 9.72, "unit": "mmHg"}, {"measurement": "Mean intraocular pressure of both eyes", "setting": "[1]; 0.25 mg/mL in right eye, 10 hours after administration", "result": 10.95, "unit": "mmHg"}, {"measurement": "Mean intraocular pressure of both eyes", "setting": "[1]; 0.25 mg/mL in right eye, before administration", "result": 9.84, "unit": "mmHg"}, {"measurement": "Mean intraocular pressure of both eyes", "setting": "[1]; 0.5 mg/mL in right eye, 1 hour after administration", "result": 5.39, "unit": "mmHg"}, {"measurement": "Mean intraocular pressure of both eyes", "setting": "[1]; 0.5 mg/mL in right eye, 2 hours after administration", "result": 5.50, "unit": "mmHg"}, {"measurement": "Mean intraocular pressure of both eyes", "setting": "[1]; 0.5 mg/mL in right eye, 4 hours after administration", "result": 6.95, "unit": "mmHg"}, {"measurement": "Mean intraocular pressure of both eyes", "setting": "[1]; 0.5 mg/mL in right eye, 6 hours after administration", "result": 8.94, "unit": "mmHg"}, {"measurement": "Mean intraocular pressure of both eyes", "setting": "[1]; 0.5 mg/mL in right eye, 8 hours after administration", "result": 9.89, "unit": "mmHg"}, {"measurement": "Mean intraocular pressure of both eyes", "setting": "[1]; 0.5 mg/mL in right eye, 10 hours after administration", "result": 11.56, "unit": "mmHg"}, {"measurement": "Mean intraocular pressure of both eyes", "setting": "[1]; 0.5 mg/mL in right eye, before administration", "result": 9.22, "unit": "mmHg"}, {"measurement": "Mean intraocular pressure of both eyes", "setting": "[1]; 1.0 mg/mL in right eye, 1 hour after administration", "result": 5.56, "unit": "mmHg"}, {"measurement": "Mean intraocular pressure of both eyes", "setting": "[1]; 1.0 mg/mL in right eye, 2 hours after administration", "result": 5.39, "unit": "mmHg"}, {"measurement": "Mean intraocular pressure of both eyes", "setting": "[1]; 1.0 mg/mL in right eye, 4 hours after administration", "result": 6.67, "unit": "mmHg"}, {"measurement": "Mean intraocular pressure of both eyes", "setting": "[1]; 1.0 mg/mL in right eye, 6 hours after administration", "result": 7.33, "unit": "mmHg"}, {"measurement": "Mean intraocular pressure of both eyes", "setting": "[1]; 1.0 mg/mL in right eye, 8 hours after administration", "result": 10.50, "unit": "mmHg"}, {"measurement": "Mean intraocular pressure of both eyes", "setting": "[1]; 1.0 mg/mL in right eye, 10 hours after administration", "result": 10.89, "unit": "mmHg"}, {"measurement": "Mean intraocular pressure of both eyes", "setting": "[1]; 1.0 mg/mL in right eye, before administration", "result": 9.17, "unit": "mmHg"}, {"measurement": "Mean intraocular pressure of both eyes", "setting": "[1]; 2.0 mg/mL in right eye, 1 hour after administration", "result": 8.11, "unit": "mmHg"}, {"measurement": "Mean intraocular pressure of both eyes", "setting": "[1]; 2.0 mg/mL in right eye, 2 hours after administration", "result": 5.84, "unit": "mmHg"}, {"measurement": "Mean intraocular pressure of both eyes", "setting": "[1]; 2.0 mg/mL in right eye, 4 hours after administration", "result": 6.06, "unit": "mmHg"}, {"measurement": "Mean intraocular pressure of both eyes", "setting": "[1]; 2.0 mg/mL in right eye, 6 hours after administration", "result": 7.11, "unit": "mmHg"}, {"measurement": "Mean intraocular pressure of both eyes", "setting": "[1]; 2.0 mg/mL in right eye, 8 hours after administration", "result": 9.00, "unit": "mmHg"}, {"measurement": "Mean intraocular pressure of both eyes", "setting": "[1]; 2.0 mg/mL in right eye, 10 hours after administration", "result": 10.05, "unit": "mmHg"}, {"measurement": "Mean intraocular pressure of both eyes", "setting": "[1]; 2.0 mg/mL in right eye, before administration", "result": 9.72, "unit": "mmHg"}, {"measurement": "Mean intraocular pressure of both eyes", "setting": "[1]; [3]", "result": 6.61, "unit": "mmHg"}, {"measurement": "Mean intraocular pressure of both eyes", "setting": "[1]; [4]", "result": 5.84, "unit": "mmHg"}, {"measurement": "Mean intraocular pressure of both eyes", "setting": "[1]; [5]", "result": 5.72, "unit": "mmHg"}, {"measurement": "Mean intraocular pressure of both eyes", "setting": "[1]; [6]", "result": 6.61, "unit": "mmHg"}, {"measurement": "Mean intraocular pressure of both eyes", "setting": "[1]; [7]", "result": 8.39, "unit": "mmHg"}, {"measurement": "Mean intraocular pressure of both eyes", "setting": "[1]; [8]", "result": 10.67, "unit": "mmHg"}, {"measurement": "Mean intraocular pressure of both eyes", "setting": "[1]; [9]", "result": 10.00, "unit": "mmHg"}, {"measurement": "Efficacy of a single dose (highest hypotensive effect and action duration)", "setting": "[1]; all test doses (0.25-4.0 mg/mL), compared with K-115", "result": "superior efficacy"}]}]}
